Legend:
[1] = Spermine-templated DCL of building blocks 1-4; conditions: spermine DCL of 1-4
Description: Building blocks 2 and 3 equipped with carboxylate moieties to establish interactions with the protonated amine groups of the spermine were allowed to equilibrate at pH 7.8 and 6 °C (Fig. 8a). As expected in our control experiment, the major component in the absence of spermine was the linear tetramer (2)2(3)2. After the addition of spermine, the linear tetramer “decomposed” in order to form mainly the cyclic tetramer of (2)4, and the (3)2 dimer (Fig. 8a). As it was reported, several studies determined that the spermine was threaded through the macrocycle fixing the configuration to a highly symmetric stereoisomer of (2)4[36]. […] The precise composition of the DCL (with and without spermine), was assessed by measuring the relative peak area (RPA). Indeed, the normalized change of RPA was used to quantify the spermine influence in the outcome (Supplementary Fig. 42)[46]. The same template (spermine) was tested in our reference DCL of four building blocks (1–4) in the absence and presence of Secox (Fig. 8b). […] Additionally, two different templates were tested to confirm the absence of conflict between selenocystine and the templating effect. Spermidine and NADPH were introduced in our 4 building blocks DCL (1–4) in the absence and presence of Secox, leading to the amplification of different species and getting the same results as the non-catalyzed DCLs (Supplementary Figs. 44, 45, Supplementary Tables 7–10, and Supplementary Methods).
The mixture was stabilized in 96 h. […] The mixture was stabilized after 24 h. […] It was stabilized in 24 h. […] DCL was equilibrated in 96 h. DCLs were performed without stirring at 6 °C and analyzed by HPLC-MS.

[2] = molecular target: bovine serum albumin (BSA) (Bos taurus, UniProt P02769); assay: BSA-directed DCL of building blocks 1-4; parameters: purchased Roche; key to NC of RPA: normalized change of relative peak area (RPA) vs blank DCL; conditions: blank vs BSA-DCL; BSA 57 µM, Secox 5% mol, 24 h
Sequence of bovine serum albumin (BSA) (P02769 25-607): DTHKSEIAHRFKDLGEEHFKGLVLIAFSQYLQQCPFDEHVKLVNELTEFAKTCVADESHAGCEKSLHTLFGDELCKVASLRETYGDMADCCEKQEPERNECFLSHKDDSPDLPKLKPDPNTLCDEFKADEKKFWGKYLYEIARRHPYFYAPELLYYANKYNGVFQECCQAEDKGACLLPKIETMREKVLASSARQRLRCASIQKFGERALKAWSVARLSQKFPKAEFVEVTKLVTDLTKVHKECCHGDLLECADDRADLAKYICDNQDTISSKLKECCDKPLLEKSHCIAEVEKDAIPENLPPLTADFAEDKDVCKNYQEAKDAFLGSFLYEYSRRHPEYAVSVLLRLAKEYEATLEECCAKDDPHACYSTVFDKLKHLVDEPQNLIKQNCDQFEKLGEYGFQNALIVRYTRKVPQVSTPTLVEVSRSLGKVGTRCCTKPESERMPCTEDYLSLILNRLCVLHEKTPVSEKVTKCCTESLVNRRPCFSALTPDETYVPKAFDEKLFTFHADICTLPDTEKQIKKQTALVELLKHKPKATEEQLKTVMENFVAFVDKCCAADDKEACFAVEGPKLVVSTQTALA

glucose oxidase (GOx) = glucose oxidase (GOx) (Aspergillus niger, UniProt P13006); assay: Glucose oxidase-directed DCL of building blocks 1-4; parameters: purchased Sigma Aldrich; conditions: blank vs GOx template DCL; GOx 57 μM, Secox 5% mol, 24 h
Sequence of glucose oxidase (GOx) (P13006 17-605): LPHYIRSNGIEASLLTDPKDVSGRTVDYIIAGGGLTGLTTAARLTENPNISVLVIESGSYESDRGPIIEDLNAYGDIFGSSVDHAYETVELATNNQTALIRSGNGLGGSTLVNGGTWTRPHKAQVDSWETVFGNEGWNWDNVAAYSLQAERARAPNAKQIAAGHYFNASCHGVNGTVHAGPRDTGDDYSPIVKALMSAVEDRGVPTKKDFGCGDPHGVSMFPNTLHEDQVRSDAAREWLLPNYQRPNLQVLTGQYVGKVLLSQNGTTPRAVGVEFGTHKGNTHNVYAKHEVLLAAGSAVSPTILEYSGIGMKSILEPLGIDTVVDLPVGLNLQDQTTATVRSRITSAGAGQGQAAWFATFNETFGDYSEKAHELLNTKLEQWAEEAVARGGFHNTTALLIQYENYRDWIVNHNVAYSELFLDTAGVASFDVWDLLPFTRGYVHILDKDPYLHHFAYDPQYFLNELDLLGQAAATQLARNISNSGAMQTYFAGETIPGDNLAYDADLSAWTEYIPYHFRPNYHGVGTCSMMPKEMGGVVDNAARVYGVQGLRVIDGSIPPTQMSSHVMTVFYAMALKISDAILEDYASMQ
Description: The equilibration of the DCL was completed after 24 h (Fig. 9) and the oligomers were identified by HPLC-MS (Supplementary Figs. 4–20). The precise composition of the DCL (with and without GOx), was assessed by measuring the relative peak area (RPA). The normalized change of RPA was used to quantify the protein influence in the final DCL showing the amplification of the dimer of compound 4, that is (4)2 (Fig. 9b). Control experiments were set up to verify that the amplification of the dimer was not due to unspecific binding. Firstly the GOx was replaced by the bovine serum albumin (BSA). A stability study of BSA under the DCL conditions was performed using a fluorescence technique confirming the BSA stability in the DCL experiment (Supplementary Fig. 48)[50].
The DCL was stabilized for 24 h at 6 °C. Then, GOx was removed by ultracentrifugation through an Amicon ultra-filter (100 KDa). HPLC analysis was performed.

[3] = NADPH-templated DCL of building blocks 1-4;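 note: values are means ± SD of DCC experiments run in triplicate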
[4] = Spermidine-templated DCL of building blocks 1-4;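 note: Spermidine-templated dynamic combinatorial library, normalized change of RPA compared between Secox-free and Secox-containing libraries, DCC runs done in triplicate, values given as mean ± SD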

| Structure (SMILES) | Normalized Change of RPA (NC) ([1]; 0% Secox) | Normalized Change of RPA (NC) ([1]; 5% Secox) | NC of RPA [2] | NC of RPA (glucose oxidase (GOx)) | Normalized Change of RPA (NC) ([3]; 0% Secox) | Normalized Change of RPA (NC) ([3]; 5% Secox) | Normalized Change of RPA (NC) ([4]; 0% Secox) | Normalized Change of RPA (NC) ([4]; 5% Secox) |
| --- | --- | --- | --- | --- | --- | --- | --- | --- |
| O=C(O)c1cccc(SSc2cc(SSc3cc(SSc4cccc(C(=O)O)c4)cc(C(=O)O)c3)cc(C(=O)O)c2)c1 [(1)2(3)2] | 0,46 | 0,38 | 0,63 | -0,36 | -0,06 | -0,06 | 0,34 | 0,27 |
| O=C(O)c1cc2cc(c1)SSc1cc(cc(C(=O)O)c1)SSc1cc(cc(C(=O)O)c1)SS2 [(1)3] | -0,65 | -0,66 | -0,19 | -0,21 | -0,70 | -0,68 | -0,42 | -0,44 |
| O=C(O)c1cc2cc(c1)SSc1cc(cc(C(=O)O)c1)SSc1cc(cc(C(=O)O)c1)SSc1cc(cc(C(=O)O)c1)SS2 [(1)4] | -0,14 | -0,12 | 0,14 | -0,86 | -0,84 | -0,88 | -0,47 | -0,43 |
| O=C(O)c1cc(SSc2ccccc2)cc(SSc2cc(C(=O)O)c(SSc3ccccc3)cc2C(=O)O)c1 [(1)(2)(4)2] | -1,00 | -1,00 | 2,84 | -1,00 | -1,00 | -1,00 | -1,00 | -1,00 |
| O=C(O)c1cccc(SSc2cc(SSc3cccc(C(=O)O)c3)cc(C(=O)O)c2)c1 [(1)(3)2] | 1,19 | 1,25 | -0,75 | -0,46 | 1,24 | 1,23 | 0,83 | 0,86 |
| O=C(O)c1cc(SSc2ccccc2)cc(SSc2ccccc2)c1 [(1)(4)2] | – | – | 45,89 | – | – | – | – | – |
| O=C(O)c1cccc(SSc2cc(C(=O)O)c(SSc3cc(C(=O)O)c(SSc4cccc(C(=O)O)c4)cc3C(=O)O)cc2C(=O)O)c1 [(2)2(3)2] | -1,00 | -1,00 | -1,00 | -1,00 | -0,69 | -0,64 | -1,00 | -1,00 |
| O=C(O)c1cc(SSc2cc(C(=O)O)c(SSc3ccccc3)cc2C(=O)O)c(C(=O)O)cc1SSc1ccccc1 [(2)2(4)2] | -1,00 | -1,00 | 0,31 | -1,00 | 0,13 | 0,11 | -1,00 | -1,00 |
| O=C(O)c1cccc(SSc2cc(C(=O)O)c(SSc3cccc(C(=O)O)c3)cc2C(=O)O)c1 [(2)(3)2] | -0,26 | -0,28 | -1,00 | 0,72 | 2,41 | 2,37 | -0,11 | -0,19 |
| O=C(O)c1cccc(SSc2cc(C(=O)O)c(SSc3ccccc3)cc2C(=O)O)c1 [(2)(3)(4)] | -0,75 | -0,74 | 0,95 | -0,32 | -0,12 | -0,12 | -0,64 | -0,65 |

Source: article PMC7794297
